# In patent US20040146520A1, “Materials and methods relating to immune suppression” (priority 2001, published 2004):
# Where a SMILES comes first, the peptide text is derived from it. The star is where a group is joined. Cbz = O=C(OCc1ccccc1)*; CH2F = FC*
# Tests used:
# CD8-associated p56lck = CD8-associated p56lck (Homo sapiens, UniProt P06239); conditions: cited from earlier work
# A2+ B cell targets = assay: Gag-specific CTL assay, apoptosis of peptide-pulsed targets (Annexin-V); conditions: peptide-pulsed BCL, 12-hour incubation, FIG. 1b
# [1] = system: Flu-specific (MP58-66) CTL; assay: CTL apoptosis induced by peptide/MHC multimeric beads; format: cell-based, human; conditions: IL-2 20 U/ml, anti-CD28 1 μg/ml, z-VAD 10 μM; 12 hrs
# CD8-associated p56lck, sequence (P06239 whole entry): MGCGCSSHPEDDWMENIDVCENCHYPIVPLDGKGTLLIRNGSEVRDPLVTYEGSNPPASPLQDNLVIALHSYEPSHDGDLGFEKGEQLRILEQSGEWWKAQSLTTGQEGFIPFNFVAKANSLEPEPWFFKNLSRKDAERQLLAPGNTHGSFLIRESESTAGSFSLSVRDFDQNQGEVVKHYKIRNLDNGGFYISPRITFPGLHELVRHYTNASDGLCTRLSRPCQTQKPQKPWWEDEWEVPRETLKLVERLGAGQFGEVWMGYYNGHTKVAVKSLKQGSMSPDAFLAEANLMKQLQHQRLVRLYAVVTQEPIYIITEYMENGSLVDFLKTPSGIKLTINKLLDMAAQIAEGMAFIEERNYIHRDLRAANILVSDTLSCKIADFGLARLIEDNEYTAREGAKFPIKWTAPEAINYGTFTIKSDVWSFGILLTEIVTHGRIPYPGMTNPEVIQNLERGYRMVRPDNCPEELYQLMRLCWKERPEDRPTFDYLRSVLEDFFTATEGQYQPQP
compound,measurement,setting,value
CO[C@H]1[C@@H](OC)C[C@H](C)[C@@H](OC)C2=CC(=O)C=C(NC(=O)/C(C)=C/C=C\[C@H](OC)[C@@H](OC(N)=O)/C(C)=C/[C@@H]1C)C2=O [herbimycin A],effect on FasL-mediated cytotoxicity,CD8-associated p56lck,little effect
SLFNTVATL [Mutant 3F],"target cell death, gag variant peptides",A2+ B cell targets,sensitising
CC(NC(=O)C(NC(=O)OCc1ccccc1)C(C)C)C(=O)NC(CC(=O)O)C(=O)CF (stereo not drawn) [z-VAD] (Cbz-Val-Ala-Asp-CH2F; configuration not given here),effect of added reagent on multimer-induced CTL death,[1],blocked
